Experiments:
Type in all cases: in vivo
Details in all cases: 1200 g/ha, scale of 0-100, 0 no activity, 100 total control, about two or four weeks after application
[1] = test system: Crabgrass (large) (Digitaria sanguinalis); test: Herbicidal post-emergence test, Crabgrass (large)
Procedure: (§1) Listed below, a typical planting design for the test, consisting of four monocot weeds, four dicot weeds and one sedge weed. [table] For each compound, evaluation tests were carried out according to the following procedures: For preemergence tests, immediately after planting, the test compound was sprayed directly onto the soil surface. The flats or pots were placed in the greenhouse and then watered. For postemergence tests, seeds were allowed to germinate and grow for 10 to 21 days before application. The test plants were selected for uniformity, size and stage of development. The test plants were then treated with the test compound, returned to the greenhouse and watered. Untreated plants were used as a comparison. The compound to be evaluated was dissolved in an appropriate solvent, usually acetone, or a formulation of the evaluated compounds as described above, was added to the water, and sprayed over the flats or pots using a carrier volume equivalent to 187 or 468 liters per hectare to give a rate of application in grams per hectare (g/ha). About two or four weeks after application of the test compounds, the state of the plant was observed. Each species was evaluated on a scale of 0-100 in which 0 equals no activity and 100 equals total control.

[2] = test system: Perennial Ryegrass (Lolium perenne); test: Herbicidal pre-emergence test, Perennial Ryegrass
Procedure: as §1

[3] = test system: Barnyardgrass (Echinochloa crusgalli); test: Herbicidal pre-emergence test, Barnyardgrass
Procedure: as §1

[4] = test system: Foxtail, (green) (Setaria viridis); test: Herbicidal post-emergence test, Foxtail (green)
Procedure: as §1

[5] = test system: Hairy Beggarticks (Bidens pilosa); test: Herbicidal pre-emergence test, Hairy Beggarticks
Procedure: as §1

[6] = test system: Barnyardgrass (Echinochloa crusgalli); test: Herbicidal post-emergence test, Barnyardgrass
Procedure: as §1

[7] = test system: Smartweed, (pale) (Polygonum lapathifolium); test: Herbicidal post-emergence test, Smartweed (pale)
Procedure: as §1

[8] = test system: Nutsedge, (yellow) (Cyperus esculentus); test: Herbicidal pre-emergence test, Nutsedge (yellow)
Procedure: as §1

[9] = test system: Velvetleaf (Abutilon theophrasti); test: Herbicidal post-emergence test, Velvetleaf
Procedure: as §1

[10] = test system: Velvetleaf (Abutilon theophrasti); test: Herbicidal pre-emergence test, Velvetleaf
Procedure: as §1

[11] = test system: Nutsedge, (yellow) (Cyperus esculentus); test: Herbicidal post-emergence test, Nutsedge (yellow)
Procedure: as §1

[12] = test system: Nightshade, (black) (Solanum nigrum); test: Herbicidal pre-emergence test, Nightshade (black)
Procedure: as §1

[13] = test system: Perennial Ryegrass (Lolium perenne); test: Herbicidal post-emergence test, Perennial Ryegrass
Procedure: as §1

[14] = test system: Smartweed, (pale) (Polygonum lapathifolium); test: Herbicidal pre-emergence test, Smartweed (pale)
Procedure: as §1

[15] = test system: Hairy Beggarticks (Bidens pilosa); test: Herbicidal post-emergence test, Hairy Beggarticks
Procedure: as §1

[16] = test system: Foxtail, (green) (Setaria viridis); test: Herbicidal pre-emergence test, Foxtail (green)
Procedure: as §1

[17] = test system: Nightshade, (black) (Solanum nigrum); test: Herbicidal post-emergence test, Nightshade (black)
Procedure: as §1

[18] = test system: Crabgrass (large) (Digitaria sanguinalis); test: Herbicidal pre-emergence test, Crabgrass (large)
Procedure: as §1

SMILES: CCCN1C(=O)C(=O)N(c2cc(F)c(F)cc2F)C1=O [Compound C1, reference compound]
- Herbicidal Activity CRB (post-emergence) [1]: 0/0
- Herbicidal Activity RYE (pre-emergence) [2]: 0/0
- Herbicidal Activity BYG (pre-emergence) [3]: 0/0
- Herbicidal Activity FOX (post-emergence) [4]: 0/0
- Herbicidal Activity BID (pre-emergence) [5]: 0
- Herbicidal Activity BYG (post-emergence) [6]: 0/0
- Herbicidal Activity SMT (post-emergence) [7]: 60
- Herbicidal Activity NUT (pre-emergence) [8]: 0/0
- Herbicidal Activity VEL (post-emergence) [9]: 60
- Herbicidal Activity VEL (pre-emergence) [10]: 0
- Herbicidal Activity NUT (post-emergence) [11]: 0/0
- Herbicidal Activity NS (pre-emergence) [12]: 0
- Herbicidal Activity RYE (post-emergence) [13]: 0/0
- Herbicidal Activity SMT (pre-emergence) [14]: 0
- Herbicidal Activity BID (post-emergence) [15]: 40
- Herbicidal Activity FOX (pre-emergence) [16]: 0/0
- Herbicidal Activity NS (post-emergence) [17]: 80
- Herbicidal Activity CRB (pre-emergence) [18]: 0/0

SMILES: C=CCOc1cc(N2C(=O)C(=O)N(C)C2=O)c(F)cc1Cl [Compound 15]
- Herbicidal Activity CRB (post-emergence) [1]: 30
- Herbicidal Activity RYE (pre-emergence) [2]: 0/0
- Herbicidal Activity BYG (pre-emergence) [3]: 0
- Herbicidal Activity FOX (post-emergence) [4]: 30
- Herbicidal Activity BID (pre-emergence) [5]: 0
- Herbicidal Activity BYG (post-emergence) [6]: 30
- Herbicidal Activity SMT (post-emergence) [7]: 80
- Herbicidal Activity NUT (pre-emergence) [8]: 0/0
- Herbicidal Activity VEL (post-emergence) [9]: 90
- Herbicidal Activity VEL (pre-emergence) [10]: 0
- Herbicidal Activity NUT (post-emergence) [11]: 0/0
- Herbicidal Activity NS (pre-emergence) [12]: 0
- Herbicidal Activity RYE (post-emergence) [13]: 0/0
- Herbicidal Activity SMT (pre-emergence) [14]: 0
- Herbicidal Activity BID (post-emergence) [15]: 85
- Herbicidal Activity FOX (pre-emergence) [16]: 0
- Herbicidal Activity NS (post-emergence) [17]: 85
- Herbicidal Activity CRB (pre-emergence) [18]: 0

SMILES: CCCCN1C(=O)C(=O)N(c2cc(OC3CCCC3)c(Cl)cc2F)C1=O [Compound 10]
- Herbicidal Activity CRB (post-emergence) [1]: 20
- Herbicidal Activity RYE (pre-emergence) [2]: 0
- Herbicidal Activity BYG (pre-emergence) [3]: 0
- Herbicidal Activity FOX (post-emergence) [4]: 80
- Herbicidal Activity BID (pre-emergence) [5]: 0
- Herbicidal Activity BYG (post-emergence) [6]: 40
- Herbicidal Activity SMT (post-emergence) [7]: 30
- Herbicidal Activity NUT (pre-emergence) [8]: 0
- Herbicidal Activity VEL (post-emergence) [9]: 100
- Herbicidal Activity VEL (pre-emergence) [10]: 0
- Herbicidal Activity NUT (post-emergence) [11]: 30
- Herbicidal Activity NS (pre-emergence) [12]: 0
- Herbicidal Activity RYE (post-emergence) [13]: 30
- Herbicidal Activity SMT (pre-emergence) [14]: 0
- Herbicidal Activity BID (post-emergence) [15]: 60
- Herbicidal Activity FOX (pre-emergence) [16]: 0
- Herbicidal Activity NS (post-emergence) [17]: 100
- Herbicidal Activity CRB (pre-emergence) [18]: 0

SMILES: C#CCN1C(=O)COc2cc(F)c(N3C(=O)C(=O)N(CCC)C3=S)cc21 [Compound 25]
- Herbicidal Activity CRB (post-emergence) [1]: 30
- Herbicidal Activity RYE (pre-emergence) [2]: 85
- Herbicidal Activity BYG (pre-emergence) [3]: 100
- Herbicidal Activity FOX (post-emergence) [4]: 60
- Herbicidal Activity BID (pre-emergence) [5]: 100/100
- Herbicidal Activity BYG (post-emergence) [6]: 30
- Herbicidal Activity SMT (post-emergence) [7]: 100/100
- Herbicidal Activity NUT (pre-emergence) [8]: 80
- Herbicidal Activity VEL (post-emergence) [9]: 100/100
- Herbicidal Activity VEL (pre-emergence) [10]: 100/100
- Herbicidal Activity NUT (post-emergence) [11]: 40
- Herbicidal Activity NS (pre-emergence) [12]: 100/100
- Herbicidal Activity RYE (post-emergence) [13]: 0
- Herbicidal Activity SMT (pre-emergence) [14]: 100/100
- Herbicidal Activity BID (post-emergence) [15]: 100/100
- Herbicidal Activity FOX (pre-emergence) [16]: 100
- Herbicidal Activity NS (post-emergence) [17]: 100/100
- Herbicidal Activity CRB (pre-emergence) [18]: 100

SMILES: C#CCN1C(=O)COc2cc(F)c(N3C(=O)C(=O)N(CCC)C3=O)cc21 [Compound 23, 1-n-propyl-3-[7-fluoro-4-(2-propynyl)-2ZH-1,4-benzoxazin-3(4H)-one-6-]-2,4,5-imidazlidinetrione]
- Herbicidal Activity CRB (post-emergence) [1]: 0
- Herbicidal Activity RYE (pre-emergence) [2]: 90
- Herbicidal Activity BYG (pre-emergence) [3]: 100
- Herbicidal Activity FOX (post-emergence) [4]: 60
- Herbicidal Activity BID (pre-emergence) [5]: 100
- Herbicidal Activity BYG (post-emergence) [6]: 60
- Herbicidal Activity SMT (post-emergence) [7]: 95
- Herbicidal Activity NUT (pre-emergence) [8]: 95
- Herbicidal Activity VEL (post-emergence) [9]: 100/100
- Herbicidal Activity VEL (pre-emergence) [10]: 100/100
- Herbicidal Activity NUT (post-emergence) [11]: 40
- Herbicidal Activity NS (pre-emergence) [12]: 100/100
- Herbicidal Activity RYE (post-emergence) [13]: 0
- Herbicidal Activity SMT (pre-emergence) [14]: 100
- Herbicidal Activity BID (post-emergence) [15]: 95
- Herbicidal Activity FOX (pre-emergence) [16]: 100
- Herbicidal Activity NS (post-emergence) [17]: 100/100
- Herbicidal Activity CRB (pre-emergence) [18]: 100

SMILES: C=CCOc1cc(N2C(=O)C(=O)N(CCCC)C2=O)c(F)cc1Cl [Compound 16]
- Herbicidal Activity CRB (post-emergence) [1]: 0/0
- Herbicidal Activity RYE (pre-emergence) [2]: 0/0
- Herbicidal Activity BYG (pre-emergence) [3]: 0/0
- Herbicidal Activity FOX (post-emergence) [4]: 60
- Herbicidal Activity BID (pre-emergence) [5]: 0
- Herbicidal Activity BYG (post-emergence) [6]: 0/0
- Herbicidal Activity SMT (post-emergence) [7]: 80
- Herbicidal Activity NUT (pre-emergence) [8]: 0/0
- Herbicidal Activity VEL (post-emergence) [9]: 100
- Herbicidal Activity VEL (pre-emergence) [10]: 0
- Herbicidal Activity NUT (post-emergence) [11]: 0/0
- Herbicidal Activity NS (pre-emergence) [12]: 0
- Herbicidal Activity RYE (post-emergence) [13]: 0/0
- Herbicidal Activity SMT (pre-emergence) [14]: 0
- Herbicidal Activity BID (post-emergence) [15]: 95
- Herbicidal Activity FOX (pre-emergence) [16]: 0
- Herbicidal Activity NS (post-emergence) [17]: 100
- Herbicidal Activity CRB (pre-emergence) [18]: 0/0

SMILES: CCCN1C(=O)C(=O)N(c2cc(OC3CCCC3)c(Cl)cc2F)C1=O [Compound 8]
- Herbicidal Activity CRB (post-emergence) [1]: 40
- Herbicidal Activity RYE (pre-emergence) [2]: 0/0
- Herbicidal Activity BYG (pre-emergence) [3]: 0
- Herbicidal Activity FOX (post-emergence) [4]: 95
- Herbicidal Activity BID (pre-emergence) [5]: 100
- Herbicidal Activity BYG (post-emergence) [6]: 60
- Herbicidal Activity SMT (post-emergence) [7]: 100
- Herbicidal Activity NUT (pre-emergence) [8]: 0/0
- Herbicidal Activity VEL (post-emergence) [9]: 100/100
- Herbicidal Activity VEL (pre-emergence) [10]: 100/100
- Herbicidal Activity NUT (post-emergence) [11]: 0/0
- Herbicidal Activity NS (pre-emergence) [12]: 100/100
- Herbicidal Activity RYE (post-emergence) [13]: 0/0
- Herbicidal Activity SMT (pre-emergence) [14]: 20
- Herbicidal Activity BID (post-emergence) [15]: 95
- Herbicidal Activity FOX (pre-emergence) [16]: 0
- Herbicidal Activity NS (post-emergence) [17]: 100/100
- Herbicidal Activity CRB (pre-emergence) [18]: 100

SMILES: O=C1C(=O)N(c2cc(OC3CCCC3)c(Cl)cc2F)C(=O)N1CCCl [Compound 6]
- Herbicidal Activity CRB (post-emergence) [1]: 0
- Herbicidal Activity RYE (pre-emergence) [2]: 0/0
- Herbicidal Activity BYG (pre-emergence) [3]: 40/40
- Herbicidal Activity FOX (post-emergence) [4]: 0
- Herbicidal Activity BID (pre-emergence) [5]: 30
- Herbicidal Activity BYG (post-emergence) [6]: 40/40
- Herbicidal Activity SMT (post-emergence) [7]: 0
- Herbicidal Activity NUT (pre-emergence) [8]: 0/0
- Herbicidal Activity VEL (post-emergence) [9]: 0/0
- Herbicidal Activity VEL (pre-emergence) [10]: 0/0
- Herbicidal Activity NUT (post-emergence) [11]: 0/0
- Herbicidal Activity NS (pre-emergence) [12]: 30
- Herbicidal Activity RYE (post-emergence) [13]: 0/0
- Herbicidal Activity SMT (pre-emergence) [14]: 30
- Herbicidal Activity BID (post-emergence) [15]: 0
- Herbicidal Activity FOX (pre-emergence) [16]: 30
- Herbicidal Activity NS (post-emergence) [17]: 80
- Herbicidal Activity CRB (pre-emergence) [18]: 30

From patent publication US6444615B1, “Herbicidal imidazolidinetrione and thioxo-imidazolidinediones” (Dow AgroSciences LLC, priority 2000, dated 2002)
